Numbers after ± are expanded uncertainties.
Assay: xn = mol fraction of the nth substance listed
Conditions: 101 kPa, Liquid; for viscosity: Capillary tube (Ostwald / Ubbelohde) method

CCOC(=O)OCC [diethyl carbonate] + Cc1ccccc1
Conditions	mass density, 298.15 K [kg/m3]	mass density, 303.15 K [kg/m3]	mass density, 313.15 K [kg/m3]	mass density, 323.15 K [kg/m3]	viscosity, 298.15 K [mPa·s]	viscosity, 303.15 K [mPa·s]	viscosity, 313.15 K [mPa·s]	viscosity, 323.15 K [mPa·s]
x1 = 0.1014	874.5 ± 1.9	870.46 ± 2	860.95 ± 2	850.49 ± 2.1	0.573 ± 0.007	0.542 ± 0.007	0.484 ± 0.007	0.434 ± 0.007
x1 = 0.1984	885.94 ± 1.8	881.62 ± 1.9	872.04 ± 1.9	861.33 ± 2	0.59 ± 0.007	0.557 ± 0.007	0.497 ± 0.007	0.445 ± 0.007
x1 = 0.3006	897.67 ± 1.7	893.06 ± 1.8	883.39 ± 1.8	872.43 ± 1.9	0.608 ± 0.007	0.573 ± 0.007	0.51 ± 0.007	0.457 ± 0.007
x1 = 0.4024	908.97 ± 1.6	904.06 ± 1.6	894.33 ± 1.7	883.11 ± 1.9	0.627 ± 0.007	0.59 ± 0.007	0.523 ± 0.007	0.468 ± 0.007
x1 = 0.5212	921.72 ± 1.5	916.47 ± 1.5	906.66 ± 1.6	895.17 ± 1.7	0.649 ± 0.007	0.609 ± 0.007	0.539 ± 0.007	0.481 ± 0.007
x1 = 0.6022	930.18 ± 1.4	924.71 ± 1.5	914.85 ± 1.6	903.16 ± 1.7	0.664 ± 0.007	0.622 ± 0.007	0.55 ± 0.007	0.491 ± 0.007
x1 = 0.7016	940.28 ± 1.3	934.52 ± 1.4	924.6 ± 1.5	912.68 ± 1.6	0.684 ± 0.007	0.639 ± 0.007	0.564 ± 0.007	0.503 ± 0.007
x1 = 0.7995	949.95 ± 1.2	943.93 ± 1.3	933.95 ± 1.4	921.81 ± 1.5	0.702 ± 0.007	0.657 ± 0.007	0.579 ± 0.007	0.515 ± 0.007
x1 = 0.8975	959.36 ± 1.1	953.08 ± 1.2	943.04 ± 1.3	930.72 ± 1.4	0.722 ± 0.008	0.674 ± 0.007	0.593 ± 0.007	0.527 ± 0.007
x1 = 1	968.97 ± 1.1	962.39 ± 1.1	952.32 ± 1.2	939.78 ± 1.3	0.746 ± 0.008	0.695 ± 0.008	0.61 ± 0.007	0.541 ± 0.007

Reference: the NIST ThermoML archive (doi:10.1021/je050414d)
